Experiment [1] concerns the target T1, α1β2 GABAARs (Rattus norvegicus, UniProt P62813+P63138).
T1 construct: expressed in transfected cells; host or cells: HEK293
Put plainly: [3H]glutamate binding assay, plasma membranes of HEK293 cells overexpressing α1 and β2. As to conditions: 40 nM [3H]glutamate + 0.4 mM non-radiolabeled competitor. How it is done:
For membrane preparation, transfected or non-transfected HEK293 cells were washed twice with cold PBS and harvested by scraping into 5 ml cold PBS. Cells were then centrifuged at 1200 × g for 12 min at 4 °C and medium was removed. The washing procedure was repeated twice. Then the cell pellet was re-suspended into 1 ml of 50 mM Tris-HCl buffer (pH 7.4, with protease inhibitor) and homogenized using syringes with 18-G, 21-G and 23-G needles.
To separate the membrane, the homogenate were centrifuged for 20 min at 20,000 × g at 4 °C. Then the pellet was re-suspended into 1 ml of 50 mM Tris-HCl buffer, pH 7.4 and centrifuged again. After repeating this procedure for one more time, the pellet was re-suspended into 1 ml of 50 mM Tris-HCl buffer, pH 7.4 and the protein concentration was measured.
To conduct the binding assay, 100 µg membrane enriched preparation was incubated with 40 nM [3H]-Glutamate in a total volume of 0.5 ml in 50 mM Tris-HCl buffer, pH 7.4 for 1 h on ice. […] Then the reaction was terminated by quickly filtering the solution on Whatman filter paper and washing by 3.5 ml Tris-HCl buffer. Radioactivity was measured in a Beckman liquid scintillation counter.

For experiment [2], the target named is T2, α1 β2 ^I180A γ2 GABAAR (Rattus norvegicus, UniProt P62813+P63138, I205A).
T2 construct: expressed in transfected cells; host or cells: HEK293
Put plainly: Patch clamp, HEK293, mutant GABAAR. Format: cell-based. To be noted: GABA-evoked currents. How it is done: (§1) To positively confirm one of these two putative binding sites involved in glutamate binding, we performed a systemic mutational analysis of critical amino acids around these two sites followed by electrophysiological characterizations of their impacts on glutamate potentiation in HEK293 cells expressing wild-type or mutated α1β2γ2 GABAARs (Table 1).
(§2) HEK293 cells were cultured in DMEM (Invitrogen) supplemented with 10% fetal bovine serum. Cells were grown to 40–60% confluence and transiently transfected using Lipofectamine 2000 (Invitrogen) with 1:0.5–1 plasmid/lipid ratio. Cells were transfected with a pBK-CMV expression vector containing a rat recombinant GABAAR α, β or γ subunits. Co-transections were done with a plasmid ratio of 1:1 αβ and 2:2:1 for αβγ subunit combinations, respectively. pcDNA3.1-GFP was also co-transfected along with GABAAR subunits as a transfected marker in order to facilitate the visualization of the transfected cells during electrophysiological experiments. Cells were re-plated on glass coverslips after 15–20 h transfection and were cultured for an additional 15–24 h before whole-cell patch-clamp recordings.
(§3) The site-directed mutagenesis of α, β or γ subunits were performed by using the QuikChange method (Stratagene). […] Wild-type or mutant subunits were transfected in HEK293 cells and subjected to electrophysiology examinations.
(§4) Whole-cell patch-clamp recordings were performed under voltage-clamp mode using an Axopatch 200B or 1D patch-clamp amplifier (Molecular Devices) on HEK293 cells and cultured neurons. Whole-cell currents were recorded at a holding potential of −60 mV, and signals were filtered at 2 kHz, digitized at 10 kHz (Digidata 1322 A). Recording pipettes (3–5 MΩ) were filled with the intracellular solution that contained (mM): CsCl 140, HEPES 10, Mg-ATP 4, QX-314 5, pH 7.20; osmolarity, 290–295 mOsm. BAPTA (10 mM) was added in the intracellular solution. The coverslips were continuously superfused with the extracellular solution containing (mM): NaCl 140, KCl 5.4, HEPES 10, MgCl2 1.0, CaCl2 1.3, glucose 20, pH 7.4; osmolarity, 305–315 mOsm. […] Dose–response curves were created by fitting data to Hill equation: I = Imax/[1 + (EC50/[A])^n], where I is the current, Imax is the maximum current, [A] is a given concentration of agonist, n is the Hill coefficient. […] All experiments were performed at room temperature.
(Patch clamp records ionic current or voltage across a cell membrane.)

For experiment [3], the target named is T3, α1 β2^G126A γ2 GABAAR (Rattus norvegicus, UniProt P62813+P63138, G151A).
T3 construct: expressed in transfected cells; host or cells: HEK293
Put plainly: Patch clamp, HEK293, mutant GABAAR. The class given is cell-based. How it is done: as §1, §2, §3, §4

For experiment [4], the target named is T4, α1^Y159A β2 γ2 GABAAR (Rattus norvegicus, UniProt P62813+P63138, Y186A).
T4 construct: expressed in transfected cells; host or cells: HEK293
Put plainly: Patch clamp, HEK293, mutant GABAAR. To be noted: GABA-evoked currents. Format: cell-based. How it is done: as §1, §2, §3, §4

For experiment [5], the target named is T5, α1^E208A β2 γ2 GABAAR (Rattus norvegicus, UniProt P62813+P63138, E235A).
T5 construct: expressed in transfected cells; host or cells: HEK293
Put plainly: Patch clamp, HEK293, mutant GABAAR. Format: cell-based. To be noted: GABA-evoked currents. How it is done: as §1, §2, §3, §4

Experiment [6] deals with T6, α1^T206A β2 γ2 GABAAR (Rattus norvegicus, UniProt P62813+P63138, T233A).
T6 construct: expressed in transfected cells; host or cells: HEK293
Put plainly: Patch clamp, HEK293, mutant GABAAR. Format: cell-based. As to conditions: GABA-evoked currents. How it is done: as §1, §2, §3, §4

Experiment [7] deals with T7, α1 β2^Y61A γ2 GABAAR (Rattus norvegicus, UniProt P62813+P63138, Y86A).
T7 construct: expressed in transfected cells; host or cells: HEK293
Put plainly: Patch clamp, HEK293, mutant GABAAR. Format: cell-based. The protocol: as §1, §2, §3, §4

The target in experiment [8] is T8, α1 β2^V177A γ2 GABAAR (Rattus norvegicus, UniProt P62813+P63138, V202A).
T8 construct: expressed in transfected cells; host or cells: HEK293
Put plainly: Patch clamp, HEK293, mutant GABAAR. Format: cell-based. The protocol:
as §1, §2, §3, §4

Experiment [9] deals with T9, α1^S158A β2 γ2 GABAAR (Rattus norvegicus, UniProt P62813+P63138, S185A).
T9 construct: expressed in transfected cells; host or cells: HEK293
Put plainly: Patch clamp, HEK293, mutant GABAAR. Format: cell-based. As to conditions: GABA-evoked currents. The protocol: as §1, §2, §3, §4

For experiment [10], the target named is T10, α1^F99A β2 γ2 GABAAR (Rattus norvegicus, UniProt P62813+P63138, F126A).
T10 construct: expressed in transfected cells; host or cells: HEK293
Put plainly: Patch clamp, HEK293, mutant GABAAR. Format: cell-based. As to conditions: GABA-evoked currents. How it is done: as §1, §2, §3, §4

The target of experiment [11] is T11, α1^S205A β2 γ2 GABAAR (Rattus norvegicus, UniProt P62813+P63138, S232A).
T11 construct: expressed in transfected cells; host or cells: HEK293
Put plainly: Patch clamp, HEK293, mutant GABAAR. To be noted: GABA-evoked currents. Format: cell-based. The protocol: as §1, §2, §3, §4

Experiment [12] has as its target T12, α1 β2^Q63A γ2 GABAAR (Rattus norvegicus, UniProt P62813+P63138, Q88A).
T12 construct: expressed in transfected cells; host or cells: HEK293
Put plainly: Patch clamp, HEK293, mutant GABAAR. Format: cell-based. How it is done:
as §1, §2, §3, §4

Experiment [13] addresses T13, α1^H101A β2 γ2 GABAAR (Rattus norvegicus, UniProt P62813+P63138, H128A).
T13 construct: expressed in transfected cells; host or cells: HEK293
Put plainly: Patch clamp, HEK293, mutant GABAAR. Format: cell-based. As to conditions: GABA-evoked currents. How it is done:
as §1, §2, §3, §4

For experiment [14], the target named is T14, α1 β2^E181G γ2 GABAAR (Rattus norvegicus, UniProt P62813+P63138, E206G).
T14 construct: expressed in transfected cells; host or cells: HEK293
Put plainly: Patch clamp, HEK293, mutant GABAAR. The class given is cell-based.
Source text: (§5) The subunits are color-coded individually. The boxed regions are further enlarged in the middle panels, highlighting the predicted glutamate binding pocket in the α+ and β− interface, just below the loop C. […] Relative potentiation was obtained by normalizing potentiation observed in the mutated receptor to that in the respective wild-type receptor.
as §1, §2, §3, §4

Experiment [15] concerns the target T15, α1^K155D β2 γ2 GABAAR (Rattus norvegicus, UniProt P62813+P63138, K182D).
T15 construct: expressed in transfected cells; host or cells: HEK293
Put plainly: Patch clamp, HEK293, mutant GABAAR. The class given is cell-based. To be noted: GABA-evoked currents.
Source text: as §5, §1, §2, §3, §4

Experiment [16] addresses T16, α1^K104D β2 γ2 GABAAR (Rattus norvegicus, UniProt P62813+P63138, K131D).
T16 construct: expressed in transfected cells; host or cells: HEK293
Put plainly: Patch clamp, HEK293, mutant GABAAR. Format: cell-based.
Source text: as §5, §1, §2, §3, §4

1 compound from paper PMC9527238, “Glutamate and GABAA receptor crosstalk mediates homeostatic regulation of neuronal excitation in the mammalian brain” (Signal Transduction and Targeted Therapy, 2022) can be followed below.

SMILES strings stand for the structures.

As for `NCCCC(=O)O` [GABA, gamma-Aminobutyric acid], the “[3H]glutamate binding activity in presence of competitor” value in experiment [1] is 939.2 ± 88.8 CPM. Besides, the “Imax (nA)” value in experiment [2] turned out to be 1.7 ± 0.4 nA; in experiment [3] (GABA-evoked currents), 1.3 ± 0.4 nA; in experiment [4], 1.1 ± 0.5 nA; in [5] it was 1.8 ± 0.8 nA; in experiment [6], 1.9 ± 0.8 nA; in experiment [7] (GABA-evoked currents) it was 1.0 ± 0.5 nA. Moreover, the “Imax (nA)” value was determined as 1.7 ± 0.9 nA in [8] (GABA-evoked currents); 1.3 ± 0.5 nA in experiment [9]; 1.0 ± 0.7 nA in experiment [10]; 2.3 ± 1.1 nA in experiment [11]; 1.0 ± 0.5 nA in [12] (GABA-evoked currents); 0.9 ± 0.5 nA in experiment [13]. The “Imax (nA)” value in [14] (GABA-evoked currents) is 1.1 ± 0.2 nA; in experiment [15] it was 1.3 ± 0.5 nA; in experiment [16] (GABA-evoked currents) it was 2.3 ± 0.7 nA. For the same compound, the “Hill Slope” value in experiment [3] (GABA dose-response) was 2.28 ± 0.74; in [7] (GABA dose-response) it was 2.91 ± 1.30; in experiment [8] (GABA dose-response), 1.12 ± 0.37; in experiment [12] (GABA dose-response), 2.09 ± 0.93; in experiment [14] (GABA dose-response), 1.59 ± 0.14; in experiment [16] (GABA dose-response), 1.70 ± 0.17.
